Results as given in PubChem BioAssay AID2060907 (Molecular Pharmacology Branch, DTP, NCI, 2025).

Test system: 388556-164-R-J1-PDC complex spheroid viability
Experiment: Anticancer human tumor 388556-164-R-J1-PDC patient-derived colon adenocarcinoma cell line growth inhibition [RAS]
Conditions: for IC50: curve of first compound; for viability, T/C: stronger effect = lower value
Method in brief: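 Tumour cells grown as complex spheroids with HUVEC endothelial cells and mesenchymal stem cells, treated with RAS pathway inhibitor combinations. Each agent spans half-log steps from near clinical Cmax, or 10 microM where Cmax is unknown.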

[1] = second compound 0.000949 µM, first compound 0.00316 µM
[2] = second compound 0.000949 µM, first compound 0.01 µM
[3] = second compound 0.000949 µM, first compound 0.0316 µM
[4] = second compound 0.000949 µM, first compound 0.1 µM
[5] = second compound 0.000949 µM, first compound 0.316 µM
[6] = second compound 0.000949 µM, first compound 1 µM
[7] = second compound 0.003 µM, first compound 0.00316 µM
[8] = second compound 0.003 µM, first compound 0.01 µM
[9] = second compound 0.003 µM, first compound 0.0316 µM
[10] = second compound 0.003 µM, first compound 0.1 µM
[11] = second compound 0.003 µM, first compound 0.316 µM
[12] = second compound 0.003 µM, first compound 1 µM
[13] = second compound 0.00949 µM, first compound 0.00316 µM
[14] = second compound 0.00949 µM, first compound 0.01 µM
[15] = second compound 0.00949 µM, first compound 0.0316 µM
[16] = second compound 0.00949 µM, first compound 0.1 µM
[17] = second compound 0.00949 µM, first compound 0.316 µM
[18] = second compound 0.00949 µM, first compound 1 µM
[19] = second compound 0.03 µM, first compound 0.00316 µM
[20] = second compound 0.03 µM, first compound 0.01 µM
[21] = second compound 0.03 µM, first compound 0.0316 µM
[22] = second compound 0.03 µM, first compound 0.1 µM
[23] = second compound 0.03 µM, first compound 0.316 µM
[24] = second compound 0.03 µM, first compound 1 µM
[25] = second compound 0.0949 µM, first compound 0.00316 µM
[26] = second compound 0.0949 µM, first compound 0.01 µM
[27] = second compound 0.0949 µM, first compound 0.0316 µM
[28] = second compound 0.0949 µM, first compound 0.1 µM
[29] = second compound 0.0949 µM, first compound 0.316 µM
[30] = second compound 0.0949 µM, first compound 1 µM
[31] = second compound 0.3 µM, first compound 0.00316 µM
[32] = second compound 0.3 µM, first compound 0.01 µM
[33] = second compound 0.3 µM, first compound 0.0316 µM
[34] = second compound 0.3 µM, first compound 0.1 µM
[35] = second compound 0.3 µM, first compound 0.316 µM
[36] = second compound 0.3 µM, first compound 1 µM
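Also: spheroids exposed to compound for 7 days before readout.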
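For viability, T/C in this document: 100% = DMSO vehicle control luminescence.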

Compound: Nc1ccn(C2OC(CO)C(O)C2(F)F)c(=O)n1 (stereo unspecified) + CCn1c(-c2cccnc2C(C)OC)c2c3cc(ccc31)N1CCOC(CC(NC(=O)C(C(C)C)N(C)C(=O)C3(F)CCN(C(=O)C#CC(C)(C)N(C)C)CC3)C(=O)N3CCCC(N3)C(=O)OCC(C)(C)C2)C1
- IC50 (second compound 0.000949 µM): > 1 µM
- IC50 (second compound 0.003 µM): > 1 µM
- IC50 (second compound 0.00949 µM): > 1 µM
- IC50 (second compound 0.03 µM): > 1 µM
- IC50 (second compound 0.0949 µM): > 1 µM
- IC50 (second compound 0.3 µM): > 1 µM
- viability, T/C [1]: 96%
- viability, T/C [2]: 85.5%
- viability, T/C [3]: 77.4%
- viability, T/C [4]: 71.8%
- viability, T/C [5]: 71.6%
- viability, T/C [6]: 64.1%
- viability, T/C [7]: 102%
- viability, T/C [8]: 90.5%
- viability, T/C [9]: 76.8%
- viability, T/C [10]: 72.1%
- viability, T/C [11]: 72.4%
- viability, T/C [12]: 65.8%
- viability, T/C [13]: 99.1%
- viability, T/C [14]: 91.8%
- viability, T/C [15]: 78.6%
- viability, T/C [16]: 69.4%
- viability, T/C [17]: 70%
- viability, T/C [18]: 64.5%
- viability, T/C [19]: 98.4%
- viability, T/C [20]: 92.7%
- viability, T/C [21]: 79%
- viability, T/C [22]: 67.5%
- viability, T/C [23]: 70.6%
- viability, T/C [24]: 61.7%
- viability, T/C [25]: 90.6%
- viability, T/C [26]: 86.3%
- viability, T/C [27]: 74.7%
- viability, T/C [28]: 67.6%
- viability, T/C [29]: 68.1%
- viability, T/C [30]: 62.2%
- viability, T/C [31]: 81.7%
- viability, T/C [32]: 78%
- viability, T/C [33]: 69.8%
- viability, T/C [34]: 68.4%
- viability, T/C [35]: 67.2%
- viability, T/C [36]: 59.5%

Compound: CC(=O)OC12COC1CC(O)C1(C)C(=O)C(O)C3=C(C)C(OC(=O)C(O)C(NC(=O)OC(C)(C)C)c4ccccc4)CC(O)(C(OC(=O)c4ccccc4)C21)C3(C)C (stereo unspecified) + C#Cc1c(F)ccc2cc(O)cc(-c3ncc4c(N5CC6CCC(C5)N6)nc(OCC56CCCN5CC(F)C6)nc4c3F)c12
- IC50 (second compound 0.0316 µM): > 10 µM
- IC50 (second compound 0.1 µM): > 10 µM
- IC50 (second compound 0.316 µM): > 10 µM
- IC50 (second compound 1 µM): > 10 µM
- IC50 (second compound 3.16 µM): 6.13 µM
- IC50 (second compound 10 µM): 0.811 µM
- viability, T/C (second compound 0.0316 µM, first compound 0.0316 µM): 80.7%
- viability, T/C (second compound 0.0316 µM, first compound 0.1 µM): 80.8%
- viability, T/C (second compound 0.0316 µM, first compound 0.316 µM): 76.1%
- viability, T/C (second compound 0.0316 µM, first compound 1 µM): 76.1%
- viability, T/C (second compound 0.0316 µM, first compound 3.16 µM): 74.5%
- viability, T/C (second compound 0.0316 µM, first compound 10 µM): 75.1%
- viability, T/C (second compound 0.1 µM, first compound 0.0316 µM): 87.6%
- viability, T/C (second compound 0.1 µM, first compound 0.1 µM): 80.8%
- viability, T/C (second compound 0.1 µM, first compound 0.316 µM): 71.5%
- viability, T/C (second compound 0.1 µM, first compound 1 µM): 75.2%
- viability, T/C (second compound 0.1 µM, first compound 3.16 µM): 78.9%
- viability, T/C (second compound 0.1 µM, first compound 10 µM): 75.4%
- viability, T/C (second compound 0.316 µM, first compound 0.0316 µM): 82.5%
- viability, T/C (second compound 0.316 µM, first compound 0.1 µM): 73.7%
- viability, T/C (second compound 0.316 µM, first compound 0.316 µM): 67.4%
- viability, T/C (second compound 0.316 µM, first compound 1 µM): 69.7%
- viability, T/C (second compound 0.316 µM, first compound 3.16 µM): 77.1%
- viability, T/C (second compound 0.316 µM, first compound 10 µM): 59%
- viability, T/C (second compound 1 µM, first compound 0.0316 µM): 78.5%
- viability, T/C (second compound 1 µM, first compound 0.1 µM): 74.4%
- viability, T/C (second compound 1 µM, first compound 0.316 µM): 59.6%
- viability, T/C (second compound 1 µM, first compound 1 µM): 67.4%
- viability, T/C (second compound 1 µM, first compound 3.16 µM): 69%
- viability, T/C (second compound 1 µM, first compound 10 µM): 49.8%
- viability, T/C (second compound 3.16 µM, first compound 0.0316 µM): 72.8%
- viability, T/C (second compound 3.16 µM, first compound 0.1 µM): 58.2%
- viability, T/C (second compound 3.16 µM, first compound 0.316 µM): 59%
- viability, T/C (second compound 3.16 µM, first compound 1 µM): 65.8%
- viability, T/C (second compound 3.16 µM, first compound 3.16 µM): 63.3%
- viability, T/C (second compound 3.16 µM, first compound 10 µM): 40.2%
- viability, T/C (second compound 10 µM, first compound 0.0316 µM): 56.6%
- viability, T/C (second compound 10 µM, first compound 0.1 µM): 48.2%
- viability, T/C (second compound 10 µM, first compound 0.316 µM): 52.4%
- viability, T/C (second compound 10 µM, first compound 1 µM): 54.7%
- viability, T/C (second compound 10 µM, first compound 3.16 µM): 40.1%
- viability, T/C (second compound 10 µM, first compound 10 µM): 35.5%

Compound: CCN1CCN(Cc2ccc(Nc3ncc(F)c(-c4cc(F)c5nc(C)n(C(C)C)c5c4)n3)nc2)CC1 + CCn1c(-c2cc(N3CCN(C)CC3)cnc2C(C)OC)c2c3cc(ccc31)-c1csc(n1)CC(NC(=O)C1CC1C)C(=O)N1CCCC(N1)C(=O)OCC(C)(C)C2
- IC50 (second compound 0.000949 µM): > 1 µM
- IC50 (second compound 0.003 µM): > 1 µM
- IC50 (second compound 0.00949 µM): 0.879 µM
- IC50 (second compound 0.03 µM): 0.219 µM
- IC50 (second compound 0.0949 µM): < 0.00316 µM
- IC50 (second compound 0.3 µM): < 0.00316 µM
- viability, T/C [1]: 97.5%
- viability, T/C [2]: 92.2%
- viability, T/C [3]: 93.1%
- viability, T/C [4]: 79.4%
- viability, T/C [5]: 75%
- viability, T/C [6]: 75.2%
- viability, T/C [7]: 96%
- viability, T/C [8]: 96.8%
- viability, T/C [9]: 76.6%
- viability, T/C [10]: 71.3%
- viability, T/C [11]: 66.2%
- viability, T/C [12]: 58.7%
- viability, T/C [13]: 79.8%
- viability, T/C [14]: 78.6%
- viability, T/C [15]: 68.5%
- viability, T/C [16]: 58.1%
- viability, T/C [17]: 62.7%
- viability, T/C [18]: 46.8%
- viability, T/C [19]: 59%
- viability, T/C [20]: 64.4%
- viability, T/C [21]: 65.9%
- viability, T/C [22]: 57.9%
- viability, T/C [23]: 46.2%
- viability, T/C [24]: 38.7%
- viability, T/C [25]: 45.9%
- viability, T/C [26]: 41.2%
- viability, T/C [27]: 35.4%
- viability, T/C [28]: 30.8%
- viability, T/C [29]: 34%
- viability, T/C [30]: 31.4%
- viability, T/C [31]: 33.2%
- viability, T/C [32]: 32.3%
- viability, T/C [33]: 31.9%
- viability, T/C [34]: 30.8%
- viability, T/C [35]: 29.5%
- viability, T/C [36]: 31.5%
